From patent US20180201592A1, “2-AMINO-1,3,4-THIADIAZINE AND 2-AMINO-1,3,4-OXADIAZINE BASED ANTIFUNGAL AGENTS” (F2G Limited, priority 2015, published 2018) come the findings set out here.

Holding throughout (conditions): banded MIC grade
One assay relates to Aspergillus fumigatus. In words: Minimum inhibitory concentration, YAG medium. Format: cell-based. Summed up:
(§1)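 Broth microdilution in YAG medium (1% glucose, 1% ammonium chloride, 0.5% yeast extract) with spore inocula of 1-2×10^4 cfu/mL and doubling dilutions typically spanning 50-0.05 mg/L. Plates were incubated 24 hrs at 35° C and read by OD 485 nm. MIC is the lowest concentration giving >70% growth inhibition versus drug-free control, in mg/L.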

A further assay concerns A. fumigatus 210. In words: Minimum inhibitory concentration, YAG medium. Format: cell-based, Aspergillus fumigatus. Summed up: as §1
A further assay has as its system A. terreus 49. In words: Minimum inhibitory concentration, YAG medium. Format: cell-based, Aspergillus terreus. Summed up:
(§2)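 MIC in mg/L, from OD485 growth read-out after 24 hrs at 35° C in YAG medium with Aspergillus spores. Doubling dilutions in water made from a 5 mg/mL DMSO stock.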

A further assay deals with Aspergillus flavus. In words: Minimum inhibitory concentration, YAG medium. Format: cell-based. The method, boiled down:
as §2

The next assay has as its system Aspergillus niger. As to the kind of experiment: Minimum inhibitory concentration, YAG medium. Format: cell-based. The method, boiled down:
as §2

A further assay deals with Aspergillus terreus. As to the kind of experiment: Minimum inhibitory concentration, YAG medium. Format: cell-based. Summed up: as §2
A further assay relates to C. albicans. In words: Minimum inhibitory concentration, RPMI medium. Format: cell-based. Summed up:
(§3)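 Growth was measured by OD at 485 nm after 24-48 hrs at 35° C in RPMI 1640 medium. Compound was serially diluted twofold in water, starting from a 5 mg/mL DMSO stock solution.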

The next assay concerns C. parapsilosis. In words: Minimum inhibitory concentration, RPMI medium. Format: cell-based. The method, boiled down:
as §3

A further assay concerns C. tropicalis. As to the kind of experiment: Minimum inhibitory concentration, RPMI medium. Format: cell-based. Summed up:
as §3

As for `NC1=NNC(c2cccc3ccccc23)=CS1`, in the assay on Aspergillus fumigatus, the “MIC grade, A. FUMIGATUS, YAG media” value is 1 (1: ≥5 mg/L). In the assay with A. fumigatus 210, the “MIC grade, A. FUMIGATUS 210, YAG media” value is given as 1 (1: ≥5 mg/L). Moreover, the “MIC grade, A. TERREUS 49, YAG media” value in the assay with A. terreus 49 is reported as 1 (1: ≥5 mg/L). The “MIC grade, A. FLAVUS, YAG media” value with Aspergillus flavus was 1 (1: ≥5 mg/L). Moreover, the “MIC grade, A. NIGER, YAG media” value with Aspergillus niger is reported as 1 (1: ≥5 mg/L). Moreover, the “MIC grade, A. TERREUS, YAG media” value with Aspergillus terreus is on record as 1 (1: ≥5 mg/L). In addition, in the assay on C. albicans, the “MIC grade, C. ALBICANS, RPMI media” value is recorded as 1 (1: ≥20 mg/L). The “MIC grade, C. PARAPSILOSIS, RPMI media” value in the assay on C. parapsilosis is recorded as 2 (2: 5-20 mg/L). Also, in the assay with C. tropicalis, the “MIC grade, C. TROPICALIS, RPMI media” value is recorded as 1 (1: ≥20 mg/L).
Regarding `COCCOCCC1=NN=C(N)SC1`, in the assay on Aspergillus fumigatus, the “MIC grade, A. FUMIGATUS, YAG media” value is 2 (2: 1-5 mg/L). Further, in the assay with A. fumigatus 210, the “MIC grade, A. FUMIGATUS 210, YAG media” value is reported as 2 (2: 1-5 mg/L). For the same compound, the “MIC grade, A. TERREUS 49, YAG media” value against A. terreus 49 is 3 (3: 0.2-1 mg/L). Moreover, the “MIC grade, A. FLAVUS, YAG media” value in the assay on Aspergillus flavus is on record as 2 (2: 1-5 mg/L). Also, in the assay with Aspergillus niger, the “MIC grade, A. NIGER, YAG media” value is 3 (3: 0.2-1 mg/L). Moreover, the “MIC grade, A. TERREUS, YAG media” value against Aspergillus terreus was 3 (3: 0.2-1 mg/L). Further, the “MIC grade, C. ALBICANS, RPMI media” value in the assay with C. albicans is recorded as 2 (2: 5-20 mg/L). Moreover, the “MIC grade, C. PARAPSILOSIS, RPMI media” value against C. parapsilosis was 2 (2: 5-20 mg/L). The “MIC grade, C. TROPICALIS, RPMI media” value against C. tropicalis was 1 (1: ≥20 mg/L).
Turning to `NC1=NN=C(CCOc2ccc(Br)cc2)CS1`, the “MIC grade, A. FUMIGATUS, YAG media” value against Aspergillus fumigatus is on record as 4 (4: <0.2 mg/L). Besides, in the assay on A. fumigatus 210, the “MIC grade, A. FUMIGATUS 210, YAG media” value was 4 (4: <0.2 mg/L). In the assay with A. terreus 49, the “MIC grade, A. TERREUS 49, YAG media” value was 1 (1: ≥5 mg/L). Besides, in the assay on Aspergillus flavus, the “MIC grade, A. FLAVUS, YAG media” value is given as 4 (4: <0.2 mg/L). Further, the “MIC grade, A. NIGER, YAG media” value in the assay on Aspergillus niger is reported as 4 (4: <0.2 mg/L). Besides, the “MIC grade, A. TERREUS, YAG media” value against Aspergillus terreus is on record as 3 (3: 0.2-1 mg/L). The “MIC grade, C. ALBICANS, RPMI media” value in the assay on C. albicans is 1 (1: ≥20 mg/L). In addition, in the assay on C. parapsilosis, the “MIC grade, C. PARAPSILOSIS, RPMI media” value is reported as 3 (3: 1-5 mg/L). In addition, the “MIC grade, C. TROPICALIS, RPMI media” value against C. tropicalis is on record as 2 (2: 5-20 mg/L).
Take `CCCCCCOCCC1=NN=C(N)SC1`: the “MIC grade, A. FUMIGATUS, YAG media” value against Aspergillus fumigatus is reported as 4 (4: <0.2 mg/L). Moreover, the “MIC grade, A. FUMIGATUS 210, YAG media” value in the assay on A. fumigatus 210 is recorded as 4 (4: <0.2 mg/L). In addition, the “MIC grade, A. TERREUS 49, YAG media” value in the assay with A. terreus 49 is listed as 4 (4: <0.2 mg/L). Moreover, in the assay on Aspergillus flavus, the “MIC grade, A. FLAVUS, YAG media” value is on record as 4 (4: <0.2 mg/L). The “MIC grade, A. NIGER, YAG media” value in the assay on Aspergillus niger was 4 (4: <0.2 mg/L). Further, in the assay with Aspergillus terreus, the “MIC grade, A. TERREUS, YAG media” value is 4 (4: <0.2 mg/L). Further, the “MIC grade, C. ALBICANS, RPMI media” value in the assay with C. albicans is reported as 4 (4: <1 mg/L). The “MIC grade, C. PARAPSILOSIS, RPMI media” value against C. parapsilosis was 4 (4: <1 mg/L). Further, in the assay on C. tropicalis, the “MIC grade, C. TROPICALIS, RPMI media” value is recorded as 3 (3: 1-5 mg/L).
`NC1=NN=C(c2ccc3ccccc3c2)CS1`: in the assay on Aspergillus fumigatus, the “MIC grade, A. FUMIGATUS, YAG media” value is recorded as 2 (2: 1-5 mg/L). Moreover, the “MIC grade, A. FUMIGATUS 210, YAG media” value in the assay on A. fumigatus 210 is reported as 1 (1: ≥5 mg/L). The “MIC grade, A. TERREUS 49, YAG media” value against A. terreus 49 is recorded as 1 (1: ≥5 mg/L). Moreover, the “MIC grade, A. FLAVUS, YAG media” value with Aspergillus flavus is reported as 1 (1: ≥5 mg/L). In addition, the “MIC grade, A. NIGER, YAG media” value against Aspergillus niger is on record as 1 (1: ≥5 mg/L). In addition, the “MIC grade, A. TERREUS, YAG media” value in the assay on Aspergillus terreus was 1 (1: ≥5 mg/L). Further, in the assay with C. albicans, the “MIC grade, C. ALBICANS, RPMI media” value is given as 1 (1: ≥20 mg/L). For the same compound, the “MIC grade, C. PARAPSILOSIS, RPMI media” value in the assay with C. parapsilosis was 1 (1: ≥20 mg/L). Also, the “MIC grade, C. TROPICALIS, RPMI media” value with C. tropicalis is given as 1 (1: ≥20 mg/L).
For `NC1=NN=C(CCOc2ccccc2)CS1`, in the assay with Aspergillus fumigatus, the “MIC grade, A. FUMIGATUS, YAG media” value is 4 (4: <0.2 mg/L). The “MIC grade, A. FUMIGATUS 210, YAG media” value in the assay with A. fumigatus 210 was 4 (4: <0.2 mg/L). The “MIC grade, A. TERREUS 49, YAG media” value against A. terreus 49 is 3 (3: 0.2-1 mg/L). The “MIC grade, A. FLAVUS, YAG media” value in the assay on Aspergillus flavus is 3 (3: 0.2-1 mg/L). Also, the “MIC grade, A. NIGER, YAG media” value against Aspergillus niger is 3 (3: 0.2-1 mg/L). Moreover, the “MIC grade, A. TERREUS, YAG media” value in the assay on Aspergillus terreus is 4 (4: <0.2 mg/L). Moreover, the “MIC grade, C. ALBICANS, RPMI media” value against C. albicans is reported as 3 (3: 1-5 mg/L). The “MIC grade, C. PARAPSILOSIS, RPMI media” value in the assay on C. parapsilosis is 4 (4: <1 mg/L). Further, the “MIC grade, C. TROPICALIS, RPMI media” value in the assay with C. tropicalis is reported as 2 (2: 5-20 mg/L).
As for `CCCCOc1cccc(C2=NN=C(N)SC2)c1`, in the assay with Aspergillus fumigatus, the “MIC grade, A. FUMIGATUS, YAG media” value is 1 (1: ≥5 mg/L). In the assay on A. fumigatus 210, the “MIC grade, A. FUMIGATUS 210, YAG media” value was 1 (1: ≥5 mg/L). In addition, the “MIC grade, A. TERREUS 49, YAG media” value in the assay on A. terreus 49 was 1 (1: ≥5 mg/L). In addition, in the assay on Aspergillus flavus, the “MIC grade, A. FLAVUS, YAG media” value is reported as 1 (1: ≥5 mg/L). The “MIC grade, A. NIGER, YAG media” value against Aspergillus niger is 1 (1: ≥5 mg/L). The “MIC grade, A. TERREUS, YAG media” value in the assay on Aspergillus terreus is recorded as 1 (1: ≥5 mg/L). Moreover, in the assay with C. albicans, the “MIC grade, C. ALBICANS, RPMI media” value is listed as 1 (1: ≥20 mg/L). Also, the “MIC grade, C. PARAPSILOSIS, RPMI media” value in the assay with C. parapsilosis is recorded as 1 (1: ≥20 mg/L). In addition, the “MIC grade, C. TROPICALIS, RPMI media” value with C. tropicalis is recorded as 1 (1: ≥20 mg/L).
